Drawing on PubChem BioAssay (NCI), this text covers TGI for 7 compounds.

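The compound was tested at five concentrations on cells cultured in 96-well plates, with a 48-hour exposure period. TGI denotes the concentration required for complete inhibition of growth.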

Among the test systems are CCRF-CEM leukemia; UACC-257 melanoma; IGROV1 ovarian; TK-10 renal; OVCAR-4 ovarian; MDA-N; BT-549 breast; MALME-3M melanoma; HCC-2998 colon; HL-60(TB) leukemia; HS 578T breast; UACC-62 melanoma; SN12C renal; HCT-116 colon; SK-MEL-5 melanoma; COLO 205 colon; KM12 colon; OVCAR-3 ovarian; NCI-H460 lung; SW-620 colon.
What all share (test): DTP human tumour cell line panel, 48 h

Broadly, the TGI is the concentration at which net growth stops. Low readings indicate greater sensitivity of the cells, high ones lower sensitivity of the cells. For `O=C(NCCCNCCN1C(=O)c2cccc3cc([N+](=O)[O-])cc(c23)C1=O)c1cc(-c2ccccc2)nc2ccccc12`, the TGI was found to be 22.2 µM with CCRF-CEM leukemia; 3.95 µM in the test on UACC-257 melanoma; 15.2 µM in the test with IGROV1 ovarian; 21.8 µM with TK-10 renal; 15.1 µM in the test on OVCAR-4 ovarian; 2.89 µM in the test on MDA-N. Besides, the TGI with BT-549 breast is 20.2 µM; in the test with MALME-3M melanoma, 3.24 µM; in the test with HCC-2998 colon it was 3.05 µM; with HL-60(TB) leukemia it was 5.76 µM; in the test on HS 578T breast, 12.5 µM; with UACC-62 melanoma, 17.4 µM. Moreover, the TGI turned out to be 17.1 µM in the test with SN12C renal; 16.8 µM in the test with HCT-116 colon; 5.97 µM in the test on SK-MEL-5 melanoma; 4.26 µM in the test on COLO 205 colon; 18.6 µM in the test on KM12 colon; 18.9 µM with OVCAR-3 ovarian. The TGI in the test on NCI-H460 lung is 12.6 µM; in the test with SW-620 colon, 5.37 µM.
In the case of `CCOC(=O)CC1(Cc2ccc(OCc3ccccc3)cc2)C(=O)OC(c2ccccc2)N1C(=O)c1ccccc1` (stereo not given), the TGI with CCRF-CEM leukemia, with UACC-257 melanoma, in the test on IGROV1 ovarian, in the test with TK-10 renal, in the test on OVCAR-4 ovarian and with MDA-N was over 100 µM in each case. The TGI with BT-549 breast is over 100 µM; with MALME-3M melanoma, over 100 µM; in the test with HCC-2998 colon, 84.7 µM; with HL-60(TB) leukemia, over 100 µM; in the test with HS 578T breast, over 100 µM; in the test on UACC-62 melanoma, over 100 µM. For the same compound, the TGI with SN12C renal, in the test with HCT-116 colon, in the test with SK-MEL-5 melanoma, in the test on COLO 205 colon, in the test with KM12 colon and in the test on OVCAR-3 ovarian was over 100 µM throughout. For the same compound, the TGI is 62.1 µM with NCI-H460 lung and over 100 µM in the test on SW-620 colon.
On to `Cc1c2c(nc3ccccc13)C(=O)c1cccnc1C2=O`, for which the total growth inhibition concentration (TGI) with CCRF-CEM leukemia was over 100 µM; in the test on UACC-257 melanoma, 27.2 µM; in the test with IGROV1 ovarian it was over 100 µM; with TK-10 renal it was over 100 µM; in the test with OVCAR-4 ovarian, over 100 µM; in the test with MDA-N it was 3.16 µM. The TGI with BT-549 breast was over 100 µM; in the test on MALME-3M melanoma, 3.56 µM; in the test on HCC-2998 colon, over 100 µM; in the test on HL-60(TB) leukemia, 41.4 µM; in the test with HS 578T breast, over 100 µM; with UACC-62 melanoma it was 10.1 µM. The TGI in the test with SN12C renal was over 100 µM; in the test on HCT-116 colon, 18.8 µM; in the test on SK-MEL-5 melanoma, 1.48 µM; in the test with COLO 205 colon, 48.7 µM; with KM12 colon it was over 100 µM; in the test on OVCAR-3 ovarian, 43.9 µM. For the same compound, the values for the TGI in the test with NCI-H460 lung and with SW-620 colon were 13.1 µM and over 100 µM, respectively.
In the case of `O=C1CSC(c2ccccc2)N1c1ccc(-n2c(-c3ccccc3)nc3ccccc3c2=O)cc1` (stereo not given), the TGI in the test with CCRF-CEM leukemia, in the test on UACC-257 melanoma, with IGROV1 ovarian, in the test with TK-10 renal, with OVCAR-4 ovarian and in the test on MDA-N was over 100 µM in each case. In addition, the TGI in the test with BT-549 breast, in the test with MALME-3M melanoma, with HCC-2998 colon, in the test with HL-60(TB) leukemia, with HS 578T breast and in the test with UACC-62 melanoma was over 100 µM each time. The TGI with SN12C renal, in the test with HCT-116 colon, in the test with SK-MEL-5 melanoma, in the test with COLO 205 colon, with KM12 colon and in the test with OVCAR-3 ovarian was over 100 µM in each case. For the same compound, the concentration for total growth inhibition (TGI) in the test on NCI-H460 lung and with SW-620 colon was over 100 µM each time.
As to `COc1ccc2c(C)c(Oc3c(Cl)c(Cl)c(O)c(C#N)c3C#N)oc2c1`, the TGI with CCRF-CEM leukemia, in the test with UACC-257 melanoma, with IGROV1 ovarian, in the test on TK-10 renal, in the test with OVCAR-4 ovarian and in the test with MDA-N was over 100 µM throughout. The TGI with BT-549 breast, with MALME-3M melanoma, in the test with HCC-2998 colon, in the test with HL-60(TB) leukemia, in the test with HS 578T breast and in the test with UACC-62 melanoma was over 100 µM each time. Besides, the TGI with SN12C renal, in the test on HCT-116 colon, in the test on SK-MEL-5 melanoma, in the test on COLO 205 colon, in the test with KM12 colon and in the test with OVCAR-3 ovarian was over 100 µM each time. For the same compound, the TGI in the test on NCI-H460 lung and in the test on SW-620 colon was over 100 µM throughout.
As to `O=C(O)C1(Cc2ccccc2)Cc2cc3c(cc2C1)CCC3`, the TGI in the test with CCRF-CEM leukemia, in the test on UACC-257 melanoma, in the test on IGROV1 ovarian, with TK-10 renal, in the test on OVCAR-4 ovarian and in the test with MDA-N was over 100 µM throughout. In addition, the TGI with BT-549 breast, with MALME-3M melanoma, with HCC-2998 colon, with HL-60(TB) leukemia, with HS 578T breast and in the test with UACC-62 melanoma was over 100 µM each time. Moreover, the TGI with SN12C renal, in the test on HCT-116 colon, in the test with SK-MEL-5 melanoma, in the test with COLO 205 colon, with KM12 colon and with OVCAR-3 ovarian was over 100 µM in each case. Further, the TGI with NCI-H460 lung and in the test on SW-620 colon was over 100 µM throughout.
Consider `O=C1/C(=C/c2ccc(O)cc2)CCc2ccc([N+](=O)[O-])cc21`, for which the TGI in the test with CCRF-CEM leukemia, in the test with UACC-257 melanoma, with IGROV1 ovarian, in the test with TK-10 renal, with OVCAR-4 ovarian and in the test with MDA-N was over 100 µM throughout. The TGI is over 100 µM with BT-549 breast; over 100 µM in the test on MALME-3M melanoma; over 100 µM in the test with HCC-2998 colon; over 100 µM in the test with HL-60(TB) leukemia; over 79.8 µM in the test with HS 578T breast; over 100 µM in the test with UACC-62 melanoma. Besides, the TGI with SN12C renal, with HCT-116 colon, with SK-MEL-5 melanoma, in the test with COLO 205 colon, in the test with KM12 colon and with OVCAR-3 ovarian was over 100 µM each time. Moreover, the TGI in the test on NCI-H460 lung and in the test on SW-620 colon was over 100 µM in each case.
